In ChEMBL document CHEMBL1131526, “Non-peptidic HIV protease inhibitors: C2-symmetry-based design of bis-sulfonamide dihydropyrones” (Bioorg Med Chem Lett, 1998):

Columns and labels:
[1] = biological target: Human immunodeficiency virus type 1 protease (Human immunodeficiency virus 1, UniProt Q72874); assay: Compound was evaluated for in vitro inhibition of human immunodeficiency virus type 1 (HIV-1) Protease
[2] = Compound was evaluated for in vitro inhibition of human immunodeficiency virus type 1 (HIV-1) Protease
[3] = biological target: Human immunodeficiency virus type 1 protease (Human immunodeficiency virus 1) (UniProt Q72874); assay: Compound was evaluated for in vitro inhibition of human immunodeficiency virus type 1 (HIV-1) Protease at 1 uM concentration

| Compound | Ki [1] [nM] | IC50 [2] [nM] | inhibition [3] [%] |
| --- | --- | --- | --- |
| CCCC1(CCc2ccccc2)CC(=O)C(C(CC)c2cccc(NS(=O)(=O)c3cn(C)cn3)c2)=C(O)O1 (stereo unspecified) | 1 | 500 |  |
| CCC(C1=C(O)OC(CC)(c2cccc(NS(=O)(=O)c3cccc4cccnc34)c2)CC1=O)c1cccc(NS(=O)(=O)c2cccc3cccnc23)c1 (stereo unspecified) |  |  | 35 |
| CCC(C1=C(O)OC(CC)(c2cccc(NS(=O)(=O)c3ccc(C#N)cn3)c2)CC1=O)c1cccc(NS(=O)(=O)c2ccc(C#N)cn2)c1 (stereo unspecified) | 0.1 |  |  |
| CCC(C1=C(O)OC(CC)(c2cccc(NS(=O)(=O)c3cn(C)cn3)c2)CC1=O)c1cccc(NS(=O)(=O)c2cn(C)cn2)c1 (stereo unspecified) | 4.7 |  |  |
| CCC(C1=C(O)OC(CC)(c2cccc(NS(=O)(=O)c3ccc(C#N)cc3)c2)CC1=O)c1cccc(NS(=O)(=O)c2ccc(C#N)cc2)c1 (stereo unspecified) |  |  | 19 |
